From patent publication US7964573B2, “Regulating expression of transient receptor potential channel genes” (The Regents of the University of California, priority 2005, dated 2011)
“Also recorded” adds a separate entry of the source.

Assays:
[1] = tested on: TRPC6; assay: TRPC6 mRNA and protein expression in IPAH-PASMC after siRNA transfection (RT-PCR, Western blot); type: cell-based, human; details: for TRPC6 protein expression: IPAH-PASMC, transfected
Protocol: (§1) Another aspect relates to the use of siRNA to inhibit the expression of TRPC6 gene. Human PASMC were isolated and cultured from normal subjects (normal PASMC) and subjects with IPAH (IPAH-PASMC). Levels of canonical TRP (TRPC) isoforms (mRNA and protein) were measured using RT-PCR and Western blot analysis. In addition, levels of TRPC6 in vivo were measured and compared with levels of Ki67, a nuclear protein expressed during S and G2/M phase of the cell cycle, using in situ immunofluorescence staining of proliferating PASMC (see Kuga et al. (1996) Circ. Res. 79:14-19). Cell cycle phase was determined by BrdU uptake and by [^3H]-thymidine incorporation into DNA. PASMC were incubated with [^3H]-thymidine for 16 hours following 24 hours of growth arrest and 48 hours of growth induction and measuring percent extent of radiolabel incorporation into precipitated DNA.
(§2) In separate experiments, siRNA was used to prevent expression and translation of the TRPC6 gene in vitro. Several fragments of open reading frames in the TRPC6 gene were identified which suppressed expression of TRPC6 protein and mRNA levels. […] A scrambled siRNA vector served as a non-silencing control.

[2] = tested on: TRPC6; assay: siRNA suppression of TRPC6 protein and mRNA levels in COS-7 cells; type: cell-based
Text: as §2

[3] = tested on: IPAH-PASMC; assay: [3H]-thymidine incorporation (proliferation) in IPAH-PASMC; type: cell-based, human; details: proliferating IPAH-PASMC, transfected
Protocol: as §1, §2

In the case of “TRPC6 siRNA-2: siRNA against the TRPC6 gene, sequence AAGGTCTTTATGCAATTGCTG (SEQ ID NO: 5) (listed as DNA, chemistry not given here)”, the TRPC6 protein expression [1] is reported as “significantly decreased; also recorded: attenuates”, the TRPC6 protein expression ([1]; listed as TRPC6 siRNA (SEQ ID NO: 5)) is reported as “significantly inhibits” and the “TRPC6 mRNA expression level” value ([1]; PASMC from patients with IPAH) is reported as “significantly inhibits”. The “suppression of expression of TRPC6 protein and mRNA levels” value [2] was “most effective”, the “[3H]-thymidine incorporation (proliferation)” value ([3]; listed as TRPC6-siRNA) was “markedly attenuated” and the “[3H]-thymidine incorporation (proliferation)” value ([3]; listed as TRPC6 siRNA) was “significantly decreased; also recorded: attenuates”.
